Data as given in ChEMBL document CHEMBL1138141, “Pyridazines part 41: synthesis, antiplatelet activity and SAR of 2,4,6-substituted 5-(3-oxo-3-phenylprop-1-en-1-yl)- or 5-(3-phenylprop-2-enoyl)pyridazin-3(2H)-ones” (Bioorg Med Chem Lett, 2006).
Active and inactive are the calls of the source. No cut-off for these calls is given here.

Columns and labels:
[1] = target: Prostaglandin G/H synthase 1 (Homo sapiens) (UniProt P23219); experiment: Inhibition of thrombin-induced platelet aggregation above 100 uM; format: functional
Sequence of Prostaglandin G/H synthase 1 (Homo sapiens) (P23219 whole entry): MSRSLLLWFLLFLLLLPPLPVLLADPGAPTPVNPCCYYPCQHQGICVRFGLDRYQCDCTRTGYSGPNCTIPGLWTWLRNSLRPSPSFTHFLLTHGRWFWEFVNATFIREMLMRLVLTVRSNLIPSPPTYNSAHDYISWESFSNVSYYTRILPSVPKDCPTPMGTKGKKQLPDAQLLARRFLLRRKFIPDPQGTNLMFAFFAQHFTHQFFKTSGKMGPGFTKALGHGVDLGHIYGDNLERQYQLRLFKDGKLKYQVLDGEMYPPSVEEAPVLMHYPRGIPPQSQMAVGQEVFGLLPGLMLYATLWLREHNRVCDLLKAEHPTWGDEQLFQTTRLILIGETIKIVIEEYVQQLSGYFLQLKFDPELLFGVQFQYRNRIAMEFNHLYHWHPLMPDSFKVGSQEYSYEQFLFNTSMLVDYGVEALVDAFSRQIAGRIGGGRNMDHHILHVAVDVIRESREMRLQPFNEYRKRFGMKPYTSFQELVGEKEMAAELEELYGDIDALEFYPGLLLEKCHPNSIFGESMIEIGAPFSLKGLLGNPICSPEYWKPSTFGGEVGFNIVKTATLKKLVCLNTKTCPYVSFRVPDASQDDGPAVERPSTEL

[2] = target: Prostaglandin G/H synthase 1 (Homo sapiens) (UniProt P23219); experiment: Inhibition of thrombin-induced platelet aggregation below 100 uM; format: functional

O=C(/C=C/c1ccccc1)c1cnn(Cc2ccccc2)c(=O)c1
Activity [1]: Active
Activity [2]: inactive
